Test results taken from ChEMBL document CHEMBL4118030, “Polyketides and Anthranilic Acid Possessing 6-Deoxy-α-l-talopyranose from a Streptomyces Species” (J Nat Prod, 2017).
Activity calls are given as the source filed them. The rule behind the calls is not given here.

Tests used:
[1] = molecular target: T1, Indoleamine 2,3-dioxygenase 1 (Homo sapiens, UniProt P14902); experiment: Inhibition of ascorbic acid/methylene blue activated recombinant human IDO expressed in Escherichia coli up to 10 uM using L-Tryptophan as substrate after 60 mins by spectrophotometric method relative to control
Target sequence in this assay (P14902 whole entry, looked up): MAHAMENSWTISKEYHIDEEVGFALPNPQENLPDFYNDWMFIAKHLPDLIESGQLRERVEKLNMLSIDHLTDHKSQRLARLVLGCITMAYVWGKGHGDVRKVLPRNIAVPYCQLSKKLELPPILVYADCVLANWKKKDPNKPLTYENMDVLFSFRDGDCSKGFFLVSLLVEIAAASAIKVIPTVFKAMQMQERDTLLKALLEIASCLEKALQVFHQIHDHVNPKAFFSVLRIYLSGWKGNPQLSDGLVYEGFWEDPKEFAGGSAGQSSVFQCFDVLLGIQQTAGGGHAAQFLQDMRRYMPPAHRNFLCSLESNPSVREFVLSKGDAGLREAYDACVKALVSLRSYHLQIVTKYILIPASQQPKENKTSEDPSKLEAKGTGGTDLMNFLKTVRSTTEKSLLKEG

MDA-MB-231 = experiment: Antiproliferative activity against human MDA-MB-231 cells after 48 hrs by MTT assay; type: functional, cell-based; conditions: MDA-MB-231, 48 h
HeLa [2] = experiment: Antiproliferative activity against human HeLa cells after 48 hrs by MTT assay; type: functional, cell-based
SW480 = experiment: Antiproliferative activity against human SW480 cells after 48 hrs by MTT assay; type: functional, cell-based; conditions: SW480, 48 h
HL-60 = experiment: Antiproliferative activity against human HL60 cells after 48 hrs by EZ-Cytox cell viability assay; type: functional, cell-based; conditions: HL-60, 48 h
U2OS = experiment: Antiproliferative activity against human U2OS cells after 48 hrs by MTT assay; type: functional, cell-based
HeLa [3] = experiment: Induction of autophagosome accumulation in human HeLa cells harboring RFP-GFP-LC3 assessed as GFP-LC3 puncta formation at 30 uM after 24 hrs by DAPI staining based fluorescence microscopic method; type: functional, cell-based
HeLa [4] = experiment: Induction of autophagosome accumulation in human HeLa cells harboring RFP-GFP-LC3 assessed as increase in p62 level after 24 hrs by immunoblot method; type: functional, cell-based
HeLa [5] = experiment: Induction of autophagosome accumulation in human HeLa cells harboring RFP-GFP-LC3 assessed as increase in LC3-2 level after 24 hrs by immunoblot method; type: functional, cell-based
[6] = molecular target: T1, Indoleamine 2,3-dioxygenase 1; experiment: Inhibition of ascorbic acid/methylene blue activated recombinant human IDO expressed in Escherichia coli using L-Tryptophan as substrate after 60 mins by spectrophotometric method
Target sequence in this assay (P14902 whole entry): as the sequence (P14902 whole entry, looked up) above

| SMILES | inhibition [1] | IC50 (MDA-MB-231) | IC50 (HeLa [2]) | IC50 (SW480) | IC50 (HL-60) | IC50 (U2OS) | Activity (HeLa [3]) | Activity (HeLa [4]) | Activity (HeLa [5]) | IC50 [6] |
| --- | --- | --- | --- | --- | --- | --- | --- | --- | --- | --- |
| C/C=C(\C)[C@H](O)[C@H](C)/C=C(C)/C=C/C/C(C)=C/Cc1nc(OC)c(OC)c(O)c1C [PIERICIDIN A] | < 50% | > 100 µM | 84.9 µM | 82.1 µM | 82.1 µM | 91.5 µM | Active | Dose-dependent effect | Dose-dependent effect |  |
| C/C(=C\[C@H](C)[C@@H](O)[C@@H](C)/C=C/[C@@H](O)C/C=C(\C)C(=O)C[C@H](O)[C@@H](C)/C=C/C=C\C=C/C(=O)Nc1c(Cl)c(O[C@@H]2O[C@@H](C)[C@@H](O)[C@@H](O)[C@H]2O)c2cc(O)c(C)cc2c1O)C(=O)O | < 50% | > 100 µM | > 100 µM | 94.3 µM | 91.4 µM | > 100 µM |  |  |  |  |
| CNc1ccccc1C(=O)O[C@@H]1O[C@@H](C)[C@@H](O)[C@@H](O)[C@H]1O | < 50% | > 100 µM | > 100 µM | > 100 µM | > 100 µM | > 100 µM |  |  |  |  |
| C/C=C(\C)[C@H](O)[C@H](C)/C=C(C)/C=C/C/C(C)=C/Cc1nc(OC)c(OC)c(O[C@@H]2O[C@@H](C)[C@@H](O)[C@@H](O)[C@H]2O)c1C | < 50% | 35.1 µM | 27.3 µM | 23 µM | 24.8 µM | 29.6 µM | Active | Dose-dependent effect | Dose-dependent effect |  |
| C/C(=C\[C@H](C)[C@@H](O)[C@@H](C)/C=C/[C@@H](O)C/C=C(\C)C(=O)C[C@H](O)[C@@H](C)/C=C/C=C\C=C/C(=O)NC1=C(Cl)C(=O)c2cc(O)c(C)cc2C1=O)C(=O)O |  | > 100 µM | 71.4 µM | 78.1 µM | 42.2 µM | > 100 µM |  |  |  |  |
| C/C1=C/C=C\C=C\[C@H](C)[C@@H](O)CC(=O)/C(C)=C/C[C@H](O)/C=C/[C@H](C)[C@H](O)[C@@H](C)/C=C(\C)C(=O)c2c(O)c(C)cc3c2C(=O)C(Cl)=C(NC1=O)C3=O [NAPHTHOMYCIN A] |  | 34.6 µM | 30.2 µM | 7.6 µM | 2.1 µM | 20.5 µM |  |  |  | 0.44 µM |
| CC(=O)NC1=CC(=O)c2cc(O[C@@H]3O[C@@H](C)[C@@H](O)[C@@H](O)[C@H]3O)c(C)cc2C1=O |  | 72.1 µM | 35 µM | 9.3 µM | 7.1 µM | 33.6 µM |  |  |  | 0.56 µM |
| COc1cccc2c1C(=O)c1c(O)c3c(c(O)c1C2=O)C[C@@](O)(C(=O)CO)C[C@@H]3O[C@H]1C[C@H](N)[C@H](O)[C@H](C)O1 [DOXORUBICIN] |  | 0.369 µM | 0.606 µM | 0.406 µM | 0.532 µM | 0.563 µM |  |  |  |  |
| CC1=CC(=O)c2ccccc2C1=O [MENADIONE] |  |  |  |  |  |  |  |  |  | 0.37 µM |
